For the experiment, the system named is T1, laccase from Marasmius sp. BBKAV79.
T1 construct: gene benzenediol:oxygen oxidoreductase; native extracellular enzyme purified from culture supernatant (ammonium sulfate, Sephadex G-100, DEAE-cellulose); monomer, ~75 kDa by native PAGE
Briefly: absorbance at […] nm, Lineweaver-Burk plot. Format: biochemical. The conditions noted are these: 100 mM sodium acetate buffer pH 5.5; guaiacol 0.18-10 mM; free enzyme. From the text: BBKAV79 | K m and V max of purified laccase from Marasmius sp.

The structures appear in SMILES notation.

In general, Km refers to the substrate concentration at which the rate is half of its maximum.

For `COc1ccccc1O` [guaiacol], the Km is 3.03 mM.

Values taken from article PMC5010537, “Purification and characterization of laccase from Marasmius species BBKAV79 and effective decolorization of selected textile dyes” (3 Biotech, 2016).
